# Results reported in the supplement of paper PMC10307832.
# Experiments:
# Assay in all cases: relative viability (nuclei count vs DMSO), 5 days (fraction); higher = more cells survive
# DM3189 + Crizotinib = compound: C1CN(CCN1)C2=CC=C(C=C2)C3=CN4C(=C(C=N4)C5=CC=NC6=CC=CC=C56)N=C3 [DM3189] + C[C@@H](Oc1cc(-c2cnn(C3CCNCC3)c2)cnc1N)c1c(Cl)ccc(F)c1Cl [Crizotinib] (partner 1 µM)
# In short: (§1)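 Values are medians from duplicate plates. Each reflects relative viability, defined as the nuclei count of treated wells over that of vehicle wells. Lung cancer cell lines in 1536-well plates were pin-tool dosed one day after seeding with one drug alone or with a fixed anchor-drug dose plus five library-drug doses (not always all listed) in √10 steps, then fixed, stained and imaged at 4× after 5 days.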
# DM3189 + Alpelisib = compound: C1CN(CCN1)C2=CC=C(C=C2)C3=CN4C(=C(C=N4)C5=CC=NC6=CC=CC=C56)N=C3 [DM3189] + Cc1nc(NC(=O)N2CCC[C@H]2C(N)=O)sc1-c1ccnc(C(C)(C)C(F)(F)F)c1 [Alpelisib] (partner 2 µM)
# In short: as §1
# DM3189 + Bortezomib = compound: C1CN(CCN1)C2=CC=C(C=C2)C3=CN4C(=C(C=N4)C5=CC=NC6=CC=CC=C56)N=C3 [DM3189] + CC(C)C[C@H](NC(=O)[C@H](Cc1ccccc1)NC(=O)c1cnccn1)B(O)O [Bortezomib] (partner 0.002 µM)
# In short: as §1
# DM3189 + Linsitinib = compound: C1CN(CCN1)C2=CC=C(C=C2)C3=CN4C(=C(C=N4)C5=CC=NC6=CC=CC=C56)N=C3 [DM3189] + C[C@]1(O)C[C@@H](c2nc(-c3ccc4ccc(-c5ccccc5)nc4c3)c3c(N)nccn32)C1 [Linsitinib] (partner 1 µM)
# In short: as §1
# DM3189 + Pictilisib = compound: C1CN(CCN1)C2=CC=C(C=C2)C3=CN4C(=C(C=N4)C5=CC=NC6=CC=CC=C56)N=C3 [DM3189] + CS(=O)(=O)N1CCN(Cc2cc3nc(-c4cccc5[nH]ncc45)nc(N4CCOCC4)c3s2)CC1 [Pictilisib] (partner 1 µM)
# In short: as §1
Cell Line,relative viability (DM3189 + Crizotinib; first compound 0.08 µM),relative viability (DM3189 + Crizotinib; first compound 0.253 µM),relative viability (DM3189 + Crizotinib; first compound 0.8 µM),relative viability (DM3189 + Crizotinib; first compound 2.53 µM),relative viability (DM3189 + Alpelisib; first compound 0.08 µM),relative viability (DM3189 + Alpelisib; first compound 0.253 µM),relative viability (DM3189 + Alpelisib; first compound 0.8 µM),relative viability (DM3189 + Alpelisib; first compound 2.53 µM),relative viability (DM3189 + Bortezomib; first compound 0.08 µM),relative viability (DM3189 + Bortezomib; first compound 0.253 µM),relative viability (DM3189 + Bortezomib; first compound 0.8 µM),relative viability (DM3189 + Bortezomib; first compound 2.53 µM),relative viability (DM3189 + Linsitinib; first compound 0.08 µM),relative viability (DM3189 + Linsitinib; first compound 0.253 µM),relative viability (DM3189 + Linsitinib; first compound 0.8 µM),relative viability (DM3189 + Linsitinib; first compound 2.53 µM),relative viability (DM3189 + Pictilisib; first compound 0.08 µM),relative viability (DM3189 + Pictilisib; first compound 0.253 µM),relative viability (DM3189 + Pictilisib; first compound 0.8 µM),relative viability (DM3189 + Pictilisib; first compound 2.53 µM)
201T,1.06,1.03,1,1.07,1.05,1.02,1,1.05,1.15,1.07,1.05,1.09,1.07,1.03,1.01,1.08,0.766,0.73,0.515,0.702
A549,0.86,0.763,0.755,0.705,0.892,0.806,0.812,0.956,–,–,–,–,0.654,0.593,0.549,0.545,0.495,0.481,0.48,0.357
A-427,0.904,0.854,0.811,0.95,1.11,1.04,1.01,1.09,1.12,0.962,0.876,0.97,1.1,1.03,1.11,1.33,0.866,0.677,0.617,0.865
ABC-1,1.07,0.991,0.991,0.668,0.864,1.07,1.02,0.925,0.364,0.272,0.244,0.23,0.806,0.894,0.752,0.783,0.838,0.636,0.757,0.631
BEN,0.881,0.865,0.944,0.987,0.917,1,1.03,0.934,0.926,0.781,0.686,0.771,0.935,0.828,0.957,0.778,0.553,0.601,0.617,0.581
CAL-12T,0.508,0.658,0.704,0.543,1.42,1.14,1.41,1.43,1.27,0.931,0.907,0.958,0.714,0.823,0.925,0.884,0.43,0.321,0.575,0.544
COR-L23,0.633,0.455,0.679,0.583,0.749,0.634,0.645,0.636,0.83,1.02,0.908,0.746,0.94,1.01,0.559,0.742,0.71,0.668,0.485,0.627
COR-L 105,0.864,0.685,0.603,0.538,1.17,1.16,1.01,1.26,1.38,0.771,0.795,0.322,0.905,1.08,0.804,1.25,0.52,0.398,0.361,0.275
